In patent publication US20230123334A1, “AMINO LIPID COMPOUND, PREPARATION METHOD THEREFOR, AND APPLICATION THEREOF” (SHENZHEN SHENXIN BIOTECHNOLOGY CO., LTD., priority 2020, published 2023):

System: HEK293 cells
Test: Preliminary screening as DNA vectors, GFP transfection of HEK293 cells
Type: cell-based
Conditions: amino lipid/DOPE liposome with 75 ng plasmid DNA (psin-EGFP-IRES-Puro); number of GFP-expressing cells divided by total nuclei (Hoechst)
Method in brief: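 First, amino lipid and DOPE were vortexed in sodium acetate buffer (pH 5.6) to form liposomes. Next, these were held with 75 ng EGFP plasmid at room temperature for 30 min. Finally, HEK293 cells were added, cultured at 37° C., Hoechst-stained, and GFP+/total nuclei scored by imaging.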

In the case of CCCCCCCCCCCNc1nc(NCCCN2CCOCC2)nc(SCCCCCCCC)n1 [S8N11 D8], the “Absolute DNA transfection efficiency in HEK293 cells” value (“Absolute DNA transfection efficiency” below) is reported as 13.7%.

For CCCCCCCCCSc1nc(NCCCCCCC)nc(NCCN2CCCC2)n1 [S9N7 D3], the “Absolute DNA transfection efficiency” value was 27.3%.

With CCCCCCCCCNc1nc(NCCN2CCCC2)nc(SCCCCCCC)n1 [S7N9 D3] the “Absolute DNA transfection efficiency” value was 12.3%.

With CCCCCCCCCCSc1nc(NCCCCCC)nc(NCCN2CCN(C)CC2)n1 [S10N6 D5] the “Absolute DNA transfection efficiency” value was 7.0%.

For CCCCCCCCCCCCCCCCCCNc1nc(NCCCN2CCN(C)CC2)nc(SCCCCCCCCCCCCCCC)n1 [S15N18 D9], the “Absolute DNA transfection efficiency” value was 0.4%.

With CCCCCCCCCCCCCCCSc1nc(NCCCN2CCN(C)CC2)nc(N(CCCCCCCCCCCC)CCCCCCCCCCCC)n1 [S15^2N12 D9] the “Absolute DNA transfection efficiency” value was 0.9%.

CCCCCCCCCSc1nc(NCCCCCC)nc(NCCN2CCOCC2)n1 [S9N6 D2] was tested, and the “Absolute DNA transfection efficiency” value was 2.1%.

CCCCCCCCCCCCCCCCSc1nc(NCCCCCCCCCCCCCCC)nc(NCCN(CC)CC)n1 [S16N15 D7] was tested, and the “Absolute DNA transfection efficiency” value was 0.6%.

For CCCCCCCCSc1nc(NCCN2CCCCC2)nc(SCCCCCCC)n1 [S7S8 D4], the “Absolute DNA transfection efficiency” value was 7.0%.

In the case of CCCCCCCCCCCCCNc1nc(NCCN2CCN(C)CC2)nc(SCCCCCC)n1 [S6N13 D5], the “Absolute DNA transfection efficiency” value is reported as 24.1%.

For CCCCCCCCCCCCNc1nc(NCC2CCN(C)CC2)nc(SCCCCCCCCCC)n1 [S10N12 D10], the “Absolute DNA transfection efficiency” value was 6.8%.

With CCCCCCCCCCCCNc1nc(NCCCN(C)C)nc(SCCCCCCCCC)n1 [S9N12 D6] the “Absolute DNA transfection efficiency” value was 70.5%.

CCCCCCCCCCCCNc1nc(NCCN(C)C)nc(SCCCCCCCCCCC)n1 [S11N12 D1] was tested, and the “Absolute DNA transfection efficiency” value was 16.2%.

With CCCCCCCCCCCCSc1nc(NCC2CCN(C)CC2)nc(SCCCCCCCC)n1 [S8S12 D10] the “Absolute DNA transfection efficiency” value was 23.5%.

In the case of CCCCCCCCCCCSc1nc(NCCCCCC)nc(NCCN2CCN(C)CC2)n1 [S11N6 D5], the “Absolute DNA transfection efficiency” value is reported as 21.6%.

CCCCCCNc1nc(NCCN(C)C)nc(SCCCCCC)n1 [S6N6 D1] was tested, and the “Absolute DNA transfection efficiency” value was 0.1%.

In the case of CCCCCCCCCCCCCCCCSc1nc(NCCN2CCOCC2)nc(N(CCCCCCCCCCCC)CCCCCCCCCCCC)n1 [S16^2N12 D2], the “Absolute DNA transfection efficiency” value is reported as 0.0%.

For CCCCCCCCNc1nc(NCCN2CCN(C)CC2)nc(SCCCCCCC)n1 [S7N8 D5], the “Absolute DNA transfection efficiency” value was 22.1%.

For CCCCCCCCCCSc1nc(NCCCCCCC)nc(NCCCN2CCOCC2)n1 [S10N7 D8], the “Absolute DNA transfection efficiency” value was 2.6%.

CCCCCCCCCSc1nc(NCCN2CCCCC2)nc(SCCCCCCC)n1 [S7S9 D4] was tested, and the “Absolute DNA transfection efficiency” value was 15.1%.

In the case of CCCCCCCCCCCCCCCCCCNc1nc(NCCN2CCOCC2)nc(SCCCCCCC)n1 [S7N18 D2], the “Absolute DNA transfection efficiency” value is reported as 16.6%.

In the case of CCCCCCCCCSc1nc(NCCCN2CCN(C)CC2)nc(SCCCCCCCC)n1 [S8S9 D9], the “Absolute DNA transfection efficiency” value is reported as 23.5%.

In the case of CCCCCCCCCNc1nc(NCCCN(C)C)nc(SCCCCCC)n1 [S6N9 D6], the “Absolute DNA transfection efficiency” value is reported as 1.5%.

CCCCCCCCCCCCCCCCCCSc1nc(NCCCN2CCN(C)CC2)nc(SCCCCCCC)n1 [S7S18 D9] was tested, and the “Absolute DNA transfection efficiency” value was 13.1%.

For CCCCCCCCCCCCCCCSc1nc(NCCCCCCCCC)nc(NCCCN2CCN(C)CC2)n1 [S15N9 D9], the “Absolute DNA transfection efficiency” value was 13.4%.

For CCCCCCCCCCCCCCCCNc1nc(NCCCN2CCOCC2)nc(SCCCCCC)n1 [S6N16 D8], the “Absolute DNA transfection efficiency” value was 4.2%.

For CCCCCCCCCCCCCCCSc1nc(NCCN(C)C)nc(N(CCCCCCCCCCCC)CCCCCCCCCCCC)n1 [S15^2N12 D1], the “Absolute DNA transfection efficiency” value was 0.0%.

With CCCCCCCCCCCCCCCCSc1nc(NCCCCCCCCC)nc(NCCN(C)C)n1 [S16N9 D1] the “Absolute DNA transfection efficiency” value was 7.5%.

In the case of CCCCCCCCCCCCCCCCNc1nc(NCCCN2CCN(C)CC2)nc(SCCCCCCCCCCC)n1 [S11N16 D9], the “Absolute DNA transfection efficiency” value is reported as 6.6%.

For CCCCCCCCCCSc1nc(NCCCCCCCC)nc(NCC2CCN(C)CC2)n1 [S10N8 D10], the “Absolute DNA transfection efficiency” value was 0.6%.

In the case of CCCCCCCCCCCCCCCSc1nc(NCCCCCCC)nc(NCC2CCN(C)CC2)n1 [S15N7 D10], the “Absolute DNA transfection efficiency” value is reported as 33.4%.

With CCCCCCCCCCCCCCCCNc1nc(NCCN(C)C)nc(SCCCCCCC)n1 [S7N16 D1] the “Absolute DNA transfection efficiency” value was 20.0%.

CCCCCCCCCCCCCCCCCCNc1nc(NCCN2CCOCC2)nc(SCCCCCCCCC)n1 [S9N18 D2] was tested, and the “Absolute DNA transfection efficiency” value was 10.2%.

For CCCCCCCCCCCCCCSc1nc(NCCCCCCCCCCCC)nc(NCCN(CC)CC)n1 [S14N12 D7], the “Absolute DNA transfection efficiency” value was 1.1%.

CCCCCCCCCCCCCCCCCCSc1nc(NCCCCCCCCCCCC)nc(NCCN2CCCC2)n1 [S18N12 D3] was tested, and the “Absolute DNA transfection efficiency” value was 1.8%.

With CCCCCCCCCCCSc1nc(NCCN2CCOCC2)nc(SCCCCCCC)n1 [S7S11 D2] the “Absolute DNA transfection efficiency” value was 27.3%.

With CCCCCCCCSc1nc(NCCN2CCOCC2)nc(SCCCCCCCC)n1 [S8S8 D2] the “Absolute DNA transfection efficiency” value was 17.6%.

With CCCCCCCCCCCCCCCNc1nc(NCC2CCN(C)CC2)nc(SCCCCCCC)n1 [S7N15 D10] the “Absolute DNA transfection efficiency” value was 30.9%.

For CCCCCCCCCCCCSc1nc(NCCCCCCCCCCC)nc(NCCCN2CCOCC2)n1 [S12N11 D8], the “Absolute DNA transfection efficiency” value was 0.0%.

In the case of CCCCCCCCCCCCCCSc1nc(NCCCN2CCN(C)CC2)nc(SCCCCCCC)n1 [S7S14 D9], the “Absolute DNA transfection efficiency” value is reported as 3.8%.

For CCCCCCCCCCCCCCCCCCSc1nc(NCCCCCCCCCCC)nc(NCCN2CCCCC2)n1 [S18N11 D4], the “Absolute DNA transfection efficiency” value was 10.1%.

For CCCCCCCCCCCCCCCNc1nc(NCCN(C)C)nc(SCCCCCC)n1 [S6N15 D1], the “Absolute DNA transfection efficiency” value was 5.8%.

For CCCCCCCCCCCCN(CCCCCCCCCCCC)c1nc(NCCN2CCOCC2)nc(SCCCCCCCCCC)n1 [S10^2N12 D2], the “Absolute DNA transfection efficiency” value was 0.0%.

In the case of CCCCCCCCCNc1nc(NCCN2CCN(C)CC2)nc(SCCCCCCCC)n1 [S8N9 D5], the “Absolute DNA transfection efficiency” value is reported as 35.9%.

With CCCCCCCCCCCCCCCCNc1nc(NCCN2CCN(C)CC2)nc(SCCCCCCCCCCCCCC)n1 [S14N16 D5] the “Absolute DNA transfection efficiency” value was 0.9%.

With CCCCCCCCCCCCCCCSc1nc(NCCCCCC)nc(NCCN(C)C)n1 [S15N6 D1] the “Absolute DNA transfection efficiency” value was 21.2%.

CCCCCCCCCCCCCCCSc1nc(NCCCCCCC)nc(NCCN2CCCCC2)n1 [S15N7 D4] was tested, and the “Absolute DNA transfection efficiency” value was 8.1%.

In the case of CCCCCCCCCSc1nc(NCCCCCCC)nc(NCCN2CCOCC2)n1 [S9N7 D2], the “Absolute DNA transfection efficiency” value is reported as 4.4%.

With CCCCCCCCCCCCCCSc1nc(NCCCCCCCCC)nc(NCCCN2CCOCC2)n1 [S14N9 D8] the “Absolute DNA transfection efficiency” value was 10.7%.

CCCCCCCCCCCCCCCCCCNc1nc(NCCCN2CCN(C)CC2)nc(SCCCCCCCCCCCCCC)n1 [S14N18 D9] was tested, and the “Absolute DNA transfection efficiency” value was 0.3%.

CCCCCCCCCCSc1nc(NCCN2CCOCC2)nc(SCCCCCCC)n1 [S7S10 D2] was tested, and the “Absolute DNA transfection efficiency” value was 23.6%.

In the case of CCCCCCCCCCCCCCSc1nc(NCCCCCCCCCCCCC)nc(NCCN(CC)CC)n1 [S14N13 D7], the “Absolute DNA transfection efficiency” value is reported as 2.8%.

In the case of CCCCCCCCCCCCCCCCCCNc1nc(NCCN(CC)CC)nc(SCCCCCCCCCCCCCCC)n1 [S15N18 D7], the “Absolute DNA transfection efficiency” value is reported as 0.9%.
